Assay results as given in ChEMBL document CHEMBL1201862, “PubChem BioAssay data set” (2004).
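Tested at 5 concentrations; 48 h exposure; 96-well plates; endpoints linearly interpolated, else capped at highest concentration. Abbreviation: GI50, concentration required for 50% inhibition of growth.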 Active and inactive are the calls of the source. Rule as the data show it: active = GI50 up to about 1.1 µM and inactive = higher.

Legend:
Assay in all cases: NCI anticancer screen, dose series, 48 h
786-0 = tested on: 786-0
A498 = tested on: A498
A549 = tested on: A549
ACHN = tested on: ACHN
CCRF-CEM = tested on: CCRF-CEM
COLO 205 = tested on: COLO 205
DU-145 = tested on: DU-145
EKVX = tested on: EKVX
HCC 2998 = tested on: HCC 2998
HCT-116 = tested on: HCT-116
HCT-15 = tested on: HCT-15
HL-60 = tested on: HL-60
HOP-62 = tested on: HOP-62
HOP-92 = tested on: HOP-92
HT-29 = tested on: HT-29
Hs-578T = tested on: Hs-578T
IGROV-1 = tested on: IGROV-1
K562 = tested on: K562
KM12 = tested on: KM12
LOX IMVI = tested on: LOX IMVI
M14 = tested on: M14
MCF7 = tested on: MCF7
MDA-MB-231 = tested on: MDA-MB-231
MDA-MB-435 = tested on: MDA-MB-435
MOLT-4 = tested on: MOLT-4
Malme-3M = tested on: Malme-3M
NCI-H226 = tested on: NCI-H226
NCI-H23 = tested on: NCI-H23
NCI-H460 = tested on: NCI-H460
NCI/ADR-RES = tested on: NCI/ADR-RES
OVCAR-4 = tested on: OVCAR-4
OVCAR-5 = tested on: OVCAR-5
OVCAR-8 = tested on: OVCAR-8
RPMI-8226 = tested on: RPMI-8226
RXF 393 = tested on: RXF 393
SF-268 = tested on: SF-268
SF-295 = tested on: SF-295
SF-539 = tested on: SF-539
SK-MEL-28 = tested on: SK-MEL-28
SK-MEL-5 = tested on: SK-MEL-5
SK-OV-3 = tested on: SK-OV-3
SN12C = tested on: SN12C
SNB-19 = tested on: SNB-19
SNB-75 = tested on: SNB-75
SR = tested on: SR
SW-620 = tested on: SW-620
T47D = tested on: T47D
TK-10 = tested on: TK-10
U-251 = tested on: U-251
UACC-257 = tested on: UACC-257
UACC-62 = tested on: UACC-62
UO-31 = tested on: UO-31

Question: What does the source list for `C=CCCCCCCCCC(=O)ON(Cc1ccc(O)c(OC)c1)C(=O)C(F)(F)F`?
Answer: GI50 (786-0): > 100 µM (inactive); GI50 (A498): 44.1 µM (inactive); GI50 (A549): > 100 µM (inactive); GI50 (ACHN): > 100 µM (inactive); GI50 (CCRF-CEM): 10 µM (inactive); GI50 (COLO 205): > 100 µM (inactive); GI50 (DU-145): > 100 µM (inactive); GI50 (EKVX): > 100 µM (inactive); GI50 (HCC 2998): > 100 µM (inactive); GI50 (HCT-116): > 100 µM (inactive); GI50 (HCT-15): > 100 µM; GI50 (HL-60): 12.4 µM (inactive); GI50 (HOP-62): > 100 µM (inactive); GI50 (HOP-92): 34.2 µM (inactive); GI50 (HT-29): > 100 µM (inactive); GI50 (Hs-578T): 10.8 µM (inactive); GI50 (IGROV-1): > 100 µM (inactive); GI50 (K562): 75 µM (inactive); GI50 (KM12): 52.5 µM (inactive); GI50 (LOX IMVI): > 100 µM (inactive); GI50 (M14): > 100 µM (inactive); GI50 (MCF7): > 100 µM (inactive); GI50 (MDA-MB-231): > 100 µM (inactive); GI50 (MDA-MB-435): > 100 µM (inactive); GI50 (MOLT-4): 31.3 µM (inactive); GI50 (Malme-3M): > 100 µM (inactive); GI50 (NCI-H226): 21.4 µM (inactive); GI50 (NCI-H23): > 100 µM (inactive); GI50 (NCI-H460): > 100 µM (inactive); GI50 (NCI/ADR-RES): > 100 µM (inactive); GI50 (OVCAR-4): > 100 µM (inactive); GI50 (OVCAR-5): > 100 µM (inactive); GI50 (OVCAR-8): > 100 µM (inactive); GI50 (RPMI-8226): > 100 µM (inactive); GI50 (RXF 393): > 100 µM (inactive); GI50 (SF-268): > 100 µM (inactive); GI50 (SF-295): > 100 µM (inactive); GI50 (SF-539): > 100 µM (inactive); GI50 (SK-MEL-28): > 100 µM (inactive); GI50 (SK-MEL-5): > 100 µM (inactive); GI50 (SK-OV-3): > 100 µM (inactive); GI50 (SN12C): > 100 µM (inactive); GI50 (SNB-19): > 100 µM (inactive); GI50 (SNB-75): > 100 µM (inactive); GI50 (SR): 22.9 µM (inactive); GI50 (SW-620): > 100 µM (inactive); GI50 (T47D): 72.1 µM (inactive); GI50 (TK-10): > 100 µM (inactive); GI50 (U-251): > 100 µM (inactive); GI50 (UACC-257): > 100 µM (inactive); GI50 (UACC-62): 49 µM (inactive); GI50 (UO-31): 10.9 µM (inactive)
